Consider one molecule from US12428389B2, “Diarylamide compound and application thereof” (Sunshine Lake Pharma Co., Ltd., priority 2019, dated 2025).

SMILES strings stand for the structures.

Data set [1] concerns MDCK cells. Nature of the data set: MDCK cytotoxicity test, CCK-8 kit. The following applies: 7.8-125 μM, cultured for 12 h. The format is cell-based. As to the method: In order to study the cytotoxicity of the compound of the present invention, an MDCK cytotoxicity test was completed by using a CCK-8 kit. […]. In this study, a CCK-8 kit was used to detect the cytotoxicity of compounds: MDCK cell suspension in logarithmic growth phase was inoculated into a 96-well culture plate (1×10^4 cells/well/100 μL), and 100 μL of DMEM culture solution containing 10% fetal bovine serum, 100 U/mL penicillin and 100 μg/mL streptomycin was administrated to each well, then cultured in a 37° C., 5% CO2 incubator. When the cells were 70%-80% confluent, serum starvation was performed for 12 h for synchronization. […]. At the same time, blank wells (medium, CCK-8) and control wells (cells, dissolving medium of the same concentration compound, medium, CCK-8) were set up, 3 replicate wells per group. Cell survival rate was calculated: cell survival rate (%)=[(ODexperimental well−ODblank well)/(ODcontrol well−ODblank well)]×100%, wherein OD refers to the absorbance value of each well.

In data set [2] the test system is SD rats. Nature of the data set: toxicity after 7 days intragastric administration in rats (organ indexes, serum, kidney histology).
Experimental: Normal SD rats, 8 weeks old, male, 8 rats in each group were taken. The animals were placed in a metabolic cage and acclimatized for three days prior to the experiment, on a standard diet with free access to water. […] The administration was continued for 7 days. On the 7th day, the rats were anesthetized with sodium pentobarbital, and the liver and kidney were taken, weighed, and the kidney weight index and liver weight index were calculated. […] The kidney tissue was immersed in a fixative solution (4% paraformaldehyde), embedded with a paraffin embedding machine, and then cut into 6 μm thick paraffin sections by a paraffin microtome. […] The sections were observed under an optical microscope. The inner medulla, outer medulla, and cortex of each kidney were selected for comparative observation by an optical microscope. […] Blood was collected by cardiac puncture, then centrifuged to obtain serum, which was used to measure serum indexes by instruments.
The test system of data set [3] is SD rats. The experiment in a line: single subcutaneous injection, diuretic effect in rats (metabolic cage). The format is in vivo. The following applies: 100 mg/kg subcutaneous. Here is the method: The urine collection system was siliconized in advance to prevent urine loss. […] Solvent control: corn oil. The weight of urine was measured by the weight loss method and converted to volume (1 g≈1 mL). […] The peak of the diuretic effect was at 4 h after administration, and the duration of the diuretic effect was about 6-8 h. The results were shown as means±SEM, n=6. The urine osmotic pressure of the collected urine was measured by using a freezing point osmometer. […] The peak of action was at 4 h after administration, and returned to the level before administration at 6-8 h after administration. The results were shown as means±SEM, n=6. The urine samples were detected by using a urea kit for the level of urea in the urine. According to the previously measured urine volume, urine osmotic pressure and urea excretion per 2 h, the excretion of non-urea solutes per 2 h was calculated. […] The results were shown as means±SEM, n=6.

Data set [4] concerns SD rats. Nature of the data set: single intragastric administration, diuretic effect in rats (metabolic cage). It counts as in vivo. Conditions: 100 mg/kg, single (FIG. 5: intragastric). Here is the method:
The urine collection system was siliconized in advance to prevent urine loss. […] The weight of urine was measured by the weight loss method and converted to volume (1 g≈1 mL). […] Urine volume began to rise at 2 h after administration, the peak of diuretic effect was at 4 h after administration, and the duration of diuretic effect was about 6-8 h. The results were shown as means±SEM, n=6. The urine osmotic pressure of the collected urine was measured by using a freezing point osmometer. […] The peak of action was at 4 h after administration, and recovered to the level before administration at 6-8 h after administration. The results were shown as means±SEM, n=6. Urine samples were detected by using a urea kit for the level of urea in the urine. According to the previously measured urine volume, urine osmotic pressure and urea excretion per 2 h, the excretion of non-urea solutes per 2 h was calculated. […] C57BL/6J mice, male, 6 in each group, weighing 20˜22 g, were taken. […] The urine collection system was siliconized in advance to prevent urine loss. […] Solvent control: CMC-Na. The weight of urine was measured by the weight loss method and converted to volume (1 g≈1 mL). […] The results were shown as means±SEM, n=6. The urine osmotic pressure of the collected urine was measured by using a freezing point osmometer. […] The results were shown as means±SEM, n=6. The urine samples were detected by using a urea kit for the level of urea in the urine. According to the previously measured urine volume, urine osmotic pressure and urea excretion per 2 h, the excretion of non-urea solutes per 2 h was calculated. […] The results were shown as means ±SEM, n=6.

In the case of `CC(=O)Nc1ccc(NC(=O)c2ccc([N+](=O)[O-])o2)cc1` [Example 3, N-(4-acetamidophenyl)-5-nitrofuran-2-carboxamide], in data set [1], the “cytotoxic effect (cell survival rate)” value is on record as “no significant cytotoxic effect”. Moreover, in data set [2] (100 mg/kg intragastric every 8 h, vs control), the serum urea level entry is given as “no significant statistical difference”. Also, the “inner medullary tubules, histology” value in data set [2] (HE sections) is “tubule swelling appeared in the inner medullary”. The “histological morphology of the kidney” value in data set [2] (HE sections, inner medulla, outer medulla, cortex) was “did not significantly affect”. In data set [2] (n = 8), this molecule registered a Serum chlorine of 101.7 ± 1.3 mM, a Serum cholesterol of 1.59 ± 0.06 mM, a Serum glucose of 9.4 ± 0.3 mM and a Serum high-density lipoprotein of 0.71 ± 0.03 mM. In data set [2] (n = 8), this molecule showed a Serum low-density lipoprotein of 0.34 ± 0.03 mM, a Serum potassium of 4.8 ± 0.2 mM, a Serum sodium of 147.3 ± 2.0 mM and a Serum triglyceride of 0.68 ± 0.07 mM. Also, in data set [3], the “duration of the diuretic effect” value lay within 6 to 8 h; the “peak of action on urine osmotic pressure, time after administration” value is reported as 4 h; the “peak of the diuretic effect, time after administration” value is reported as 4 h; the “urine osmotic pressure returned to the level before administration, time after administration” value lay in the range of 6 to 8 h. Moreover, in data set [4], the “duration of diuretic effect” value lay within 6 to 8 h; the “peak of action on urine osmotic pressure, time after administration” value is on record as 4 h; the “peak of diuretic effect, time after administration” value is on record as 4 h; the “urine osmotic pressure recovered to the level before administration, time after administration” value was in the range of 6 to 8 h. Further, the “urine volume began to rise, time after administration” value in data set [4] is given as 2 h.
